Reference: patent US9963445B2, “Chemical compounds” (SYNGENTA PARTICIPATIONS AG, priority 2013, dated 2018)

How the values were obtained:
Type in all cases: in vivo
Setaria faberi [1] = assay: Post-emergence herbicidal activity, glasshouse pot test; set-up: key: 0 = no damage to plant, 5 = total damage to plant; details: Application post-emergence, rate 1000 g/ha, evaluated after 13 days
Experimental: (§1) Seeds of a variety of test species were sown in standard soil in pots. After 8 days cultivation (post-emergence) under controlled conditions in a glasshouse (at 24/16° C., day/night; 14 hours light; 65% humidity), the plants were sprayed with an aqueous spray solution derived from the formulation of the technical active ingredient in acetone/water (50:50) solution containing 0.5% Tween 20 (polyoxyethelyene sorbitan monolaurate, CAS RN 9005-64-5). The test plants were then grown in a glasshouse under controlled conditions (at 24/16° C., day/night; 14 hours light; 65% humidity) and watered twice daily. After 13 days, the test was evaluated (5=total damage to plant; 0=no damage to plant).
(§2) ABUTH=Abutilon theophrasti; SOLNI=Solanum nigrum; AMARE=Amaranthus retroflexus; SETFA=Setaria faberi; ALOMY=Alopecurus myosuroides; ECHCG=Echinochloa crus-galli, ZEAMX=zea mays.

Alopecurus myosuroides [2] = assay: as above; set-up: key: 0 = no damage to plant, 5 = total damage to plant; details: Application post-emergence, rate 1000 g/ha, evaluated after 13 days
Experimental: as §1, §2

Echinochloa crus-galli [3] = assay: as above; set-up: key: 0 = no damage to plant, 5 = total damage to plant; details: Application post-emergence, rate 1000 g/ha, evaluated after 13 days
Experimental: as §1, §2

Amaranthus retroflexus [4] = assay: as above; set-up: key: 0 = no damage to plant, 5 = total damage to plant; details: Application post-emergence, rate 1000 g/ha, evaluated after 13 days
Experimental: as §1, §2

zea mays [5] = assay: as above; set-up: key: 0 = no damage to plant, 5 = total damage to plant; details: Application post-emergence, rate 1000 g/ha, evaluated after 13 days
Experimental: as §1, §2

Abutilon theophrasti [6] = assay: as above; set-up: key: 0 = no damage to plant, 5 = total damage to plant; details: Application post-emergence, rate 1000 g/ha, evaluated after 13 days
Experimental: as §1, §2

Setaria faberi [7] = assay: Pre-emergence herbicidal activity, glasshouse pot test; details: pre-emergence spray, rate 1000 g/ha, evaluated after 13 days, scale 0-5
Experimental: as §1, with “After” for “After 8 days”, “for one day (pre-emergence)” for “(post-emergence)”
as §2

Alopecurus myosuroides [8] = assay: as above; details: pre-emergence spray, rate 1000 g/ha, evaluated after 13 days, scale 0-5
Experimental: as §1, with “After” for “After 8 days”, “for one day (pre-emergence)” for “(post-emergence)”
as §2

Echinochloa crus-galli [9] = assay: as above; details: pre-emergence spray, rate 1000 g/ha, evaluated after 13 days, scale 0-5
Experimental: as §1, with “After” for “After 8 days”, “for one day (pre-emergence)” for “(post-emergence)”
as §2

Amaranthus retroflexus [10] = assay: as above; details: pre-emergence spray, rate 1000 g/ha, evaluated after 13 days, scale 0-5
Experimental: as §1, with “After” for “After 8 days”, “for one day (pre-emergence)” for “(post-emergence)”
as §2

zea mays [11] = assay: as above; details: pre-emergence spray, rate 1000 g/ha, evaluated after 13 days, scale 0-5
Experimental: as §1, with “After” for “After 8 days”, “for one day (pre-emergence)” for “(post-emergence)”
as §2

Abutilon theophrasti [12] = assay: as above; details: pre-emergence spray, rate 1000 g/ha, evaluated after 13 days, scale 0-5
Experimental: as §1, with “After” for “After 8 days”, “for one day (pre-emergence)” for “(post-emergence)”
as §2

Molecule | SETFA herbicidal damage score (Setaria faberi [1]) | ALOMY herbicidal damage score (Alopecurus myosuroides [2]) | ECHCG herbicidal damage score (Echinochloa crus-galli [3]) | AMARE herbicidal damage score (Amaranthus retroflexus [4]) | ZEAMX herbicidal damage score (zea mays [5]) | ABUTH herbicidal damage score (Abutilon theophrasti [6]) | SETFA damage score, application pre-emergence (Setaria faberi [7]) | ALOMY damage score, application pre-emergence (Alopecurus myosuroides [8]) | ECHCG damage score, application pre-emergence (Echinochloa crus-galli [9]) | AMARE damage score, application pre-emergence (Amaranthus retroflexus [10]) | ZEAMX damage score, application pre-emergence (zea mays [11]) | ABUTH damage score, application pre-emergence (Abutilon theophrasti [12])
6-(4-chloro-2-hydroxy-3-methyl-5-oxo-2H-pyrrol-1-yl)-4-(trifluoromethyl)pyridine-3-carbonitrile [AF3] | 5 | 5 | 5 | 5 | 4 | 5 | 4 | 3 | 4 | 2 | 2 | 0
CCO/C=C\c1cnc(N2C(=O)C(Cl)=C(C)C2O)cc1C(F)(F)F (stereo not drawn) [AF1] | 5 | 5 | 5 | 5 | 2 | 5 | 2 | 1 | 2 | 4 | 1 | 1
CC(C)=C(C)c1cnc(N2C(=O)C(Cl)=C(C)C2O)cc1C(F)(F)F (stereo not drawn) [AF2] | 5 | 4 | 5 | 5 | 1 | 5 | 4 | 0 | 3 | 3 | 0 | 1
CC1=C(Cl)C(=O)N(c2nccc(C(F)(F)F)c2F)C1O (stereo not drawn) [AF5] | 5 | 5 | 5 | 5 | 4 | 5 | 4 | 4 | 4 | 5 | 4 | 4
CC(=O)OC1C(C)=C(Cl)C(=O)N1c1cc(C(F)(F)F)ccn1 (stereo not drawn) [AF10] | 5 | 5 | 5 | 5 | 4 | 5 | 4 | 3 | 5 | 5 | 0 | 5
CSc1ccc(N2C(=O)C(Cl)=C(C)C2OC(C)=O)nc1 (stereo not drawn) [AF19] | 3 | 4 | 3 | 5 | 1 | 3 | 0 | 0 | 0 | 0 | 0 | 0
CC1=C(Cl)C(=O)N(c2cc(C(C)C)c(C(=O)OC(C)C)cn2)C1O (stereo not drawn) [AF23] | 4 | 4 | 5 | 5 | 3 | 4 | 2 | 4 | 5 | 5 | 1 | 1
CC1=C(Cl)C(=O)N(c2cc(/C=C/C(C)(C)C)ccn2)C1O (stereo not drawn) [AF26] | 0 | 0 | 2 | 1 | 2 | 1 | 0 | 0 | 0 | 0 | 0 | 0
CC1=C(Cl)C(=O)N(c2cc(C(F)(F)F)cc[n+]2[O-])C1O (stereo not drawn) [AF28] | 3 | 1 | 1 | 0 | 1 | 3 | 0 | 0 | 0 | 0 | 0 | 0
CC(=O)c1ccnc(N2C(=O)C(Cl)=C(C)C2O)c1 (stereo not drawn) [AF30] | 3 | 2 | 2 | 1 | 1 | 1 | 1 | 1 | 2 | 3 | 1 | 3
CC1=C(Cl)C(=O)N(c2cc(C(C)(C)F)ccn2)C1O (stereo not drawn) [AF31] | 5 | 5 | 5 | 5 | 5 | 5 | 5 | 3 | 4 | 5 | 2 | 5
CC1=C(Cl)C(=O)N(c2cc(C(C)(F)F)ccn2)C1O (stereo not drawn) [AF32] | 5 | 4 | 5 | 5 | 4 | 5 | 5 | 3 | 4 | 5 | 2 | 5
CC1=C(Cl)C(=O)N(c2cc(C(F)F)ccn2)C1O (stereo not drawn) [AF34] | 5 | 5 | 5 | 4 | 3 | 5 | 5 | 3 | 5 | 3 | 2 | 5
CC1=C(Cl)C(=O)N(c2cc(C(C)(C)C)ccn2)C1O (stereo not drawn) [AF36] | 5 | 4 | 5 | 3 | 4 | 5 | 5 | 4 | 5 | 5 | 2 | 5
CC1=C(Cl)C(=O)N(c2cc(C(F)(F)F)cc(Cl)n2)C1O (stereo not drawn) [AF37] | 4 | 4 | 4 | 0 | 1 | 2 | 1 | 3 | 0 | 0 | 0 | 0
